Consider five compounds from patent publication US20120035187A1 (priority 2009, published 2012).

Where two headings read alike, the source gives them in different places. Marks after values point to notes of the source that are not given here.

The test system of one data set is brain ischemia rat. Kind of data set: Brain ischemia (cerebral infarction model) rat: size/volume of cerebral infarction region (TTC). Particulars: for increment of the volume of cerebral infarction region (in words): Experiment 13, cerebral-infarction-model rat, administered through caudal vein; for Size of cerebral infarcttion region (%): brain ischemia rats, 100 p g/kg body weight via caudal vein twice, relative to control group 1 = 100%; for Volume of cerebral infarction region (mm^3): embolus rat, caudal vein. In kind it is in vivo.

In data set [1] the test system is ICR mice injected with amyloid β fragment. Kind of data set: Passive avoidance test, mouse injected with amyloid β fragment. Particulars: for passive avoidance test (in words): mice injected with amyloid β fragment, vs amyloid β fragment alone; for Passive avoidance reaction: mouse administered with amyloid β fragment. It counts as in vivo. As to the method:
One hundred of ICR mice (male, five weeks of age, body weight of 25 to 30 g, commercialized by Charles Liver Laboratories Japan Inc., Kanagawa, Japan) were randomly divided into 10 groups, each consisting 10 heads, and raised separately until the experiment was terminated. Mice, which had been anesthetized with chloral hydrate (administered into the abdominal cavity in an amount of 350 mg/kg body weight, commercialized by SIGMA Corporation, Tokyo, Japan), were fixed at their dorsal decubitis parts, incised along their medial heads, and after confirming born suture, 9 nmol/6 μl/mouse of a solution of amyloid β fragment (β-Amyloid25-35), represented by amino acid sequence of SEQ ID No.: 1, was injected into their brain ventricles by puncturing at 1.0-mm left side and 0.5-mm backside from bregmas with a depth of 3 mm (the administration method is referred to “Brain Research”, Vol. 706, pp. 181-193 (1996)). A micro syringe with an […] stainless needle (3 mm length) was used for injection. The injection site was determined by confirming the staining at right-and-left lateral ventricles of the frontal section, dorsal third ventricle, and ventral third ventricle by injecting an Evans' Blue solution (0.3 μg/0.3 μl) in place of the solution of amyloid β fragment. The scalps were sutured after injection, any one of the compounds was administered intraperitoneally once a day over 13 days, and the behavioral score was determined by the method described below.
The captioned test is the one for evaluating animals' avoidance behavior to the once experienced aversive stimulus (electric stimulus) as an index of memory. In this experiment, step-through test was selected as a passive avoidance test, which uses the nature of mouse who favors dark room. Using an apparatus having a bright room and a dark room connected via a door, a mouse was placed in the bright room, and measured a time required for moving into the dark room as an index of memory. The passive avoidance test was performed on 9 to 12 days after the injection of amyloid β fragment into the ventricle. On the 9th day after the administration, the mouse was placed in the bright room (1,000 lux, 30-cm in depth, 30-cm in width and 15-cm in height) for a minute, and then placed in the dark room (30-cm in depth, 30-cm in width and 15-cm in height) for two minutes to be acclimatized. On the 10th day after the administration, the mouse was further acclimatized similarly as above. On the 11th day after the administration, the mouse was placed in the center of the bright room, and when the mouse moved into the dark room, the door between the rooms was immediately closed and the electric stimulus (0.8 mA, for a second) was given to the mouse. After 24 hours (on the 12th day after the administration), the mouse was placed in the center of the bright room as had been placed in the previous day, and the time required for moving into the dark room was measured as a passive avoidance reaction. When the mouse memorized the aversive electric stimulus, the passive avoidance reaction was elongated.

For another data set, the system named is APP Tg mouse. Kind of data set: Novelty object recognition test, APP transgenic mouse. The note with it: for Index for object discrimination: intraperitoneal, five times a week for 12 weeks.
Data set [2] has as its system primary neuron (neuron, astrocyte and microglia) prepared from brain cortex of a rat fetus. Kind of data set: Hydrogen peroxide disorder in primary neuron. In kind it is cell-based. Particulars: concrete data not shown. An excerpt:
Though concrete data is not shown, using primary neuron (neuron, astrocyte and microglia) prepared from brain cortex of a rat fetus in place of PC12-HS cells, the influence of NK-4, NK-26, NK-234, NK-19 and NK-150 on amyloid β fragment disorder and hydrogen peroxide disorder was investigated.

The test system of another data set is microglia. The experiment in a line: NO production from microglia in the presence of LPS. It counts as cell-based, rat. Particulars: concrete data not shown.
The next data set relates to PC12-HS cells. Particulars: 6-hydroxy dopa, 24 hours.
The test system of a further data set is PI3K-Akt cascade. The experiment in a line: Actions of NK-4 on PC12-HS cells in presence of K252a or LY294002. It counts as cell-based, rat. Particulars: concrete data omitted.
The mark [3] stands for this setting: 50 μg/kg body weight i.p. once a day.
[4] abbreviates: 500 μg/kg body weight i.p. once a day.
The mark [5] stands for this setting: i.p. five times a week for 12 weeks.

In the case of `CCN1C=CC(=CC=C(C=Cc2cc[n+](CC)c3ccccc23)c2cc[n+](CC)c3ccccc23)c2ccccc21.[I-].[I-]` [NK-4], the “increment of the volume of cerebral infarction region (in words)” value in the data set with brain ischemia rat is given as “significantly suppressed”. The “Size of cerebral infarcttion region (%)” value in the data set on brain ischemia rat is 49.4 ± 5.1 %. The “Volume of cerebral infarction region (mm^3)” value in the data set with brain ischemia rat (dose 25 μg per kg body weight) is reported as 186 ± 21 mm^3; in the data set on brain ischemia rat (dose 50 μg per kg body weight), 107 ± 21* mm^3; with brain ischemia rat (dose 100 μg per kg body weight), 88 ± 18** mm^3; in the data set on brain ischemia rat (dose 200 μg per kg body weight) it was 143 ± 26 mm^3; in the data set with brain ischemia rat (dose 300 μg per kg body weight), 176 ± 31 mm^3. Moreover, the “passive avoidance test (in words)” value in data set [1] (setting [3]) and in data set [1] (setting [4]) was “significant improvement” throughout. The “Passive avoidance reaction” value amounted to 135 ± 24 s in data set [1] (dose 50 μg/kg body weight) and 164 ± 16 s in data set [1] (dose 500 μg/kg body weight). In addition, the figures for the “Index for object discrimination” value with APP Tg mouse (dose 100 μg/kg body weight) and in the data set with APP Tg mouse (dose 500 μg/kg body weight) were 0.20 ± 0.06 and 0.30 ± 0.05, respectively. In addition, the adverse effect entry in the data set on APP Tg mouse (setting [5]) was “No adverse effect”. For the same compound, in the data set on APP Tg mouse (setting [5]), the “object discrimination test (in words)” value was “improved the dementia”. Further, the “suppressing hydrogen peroxide disorder” value in data set [2] is listed as “actions of suppressing”. Also, the “suppressing NO production from microglia” value in the data set on microglia was “actions of suppressing NO production”. Besides, the “suppression of cytotoxicity by 6-hydroxy dopa (in words)” value in the data set on PC12-HS cells is “significantly suppressed”. Besides, the “Survival-cell percentage (%)” value with PC12-HS cells (compound 0.83 ng/ml) turned out to be 59 ± 3%; in the data set with PC12-HS cells (compound 3.3 ng/ml), 65 ± 4%; in the data set with PC12-HS cells (compound 13 ng/ml) it was 69 ± 6 %; in the data set on PC12-HS cells (compound 50 ng/ml), 70 ± 6 %; in the data set on PC12-HS cells (compound 200 ng/ml), 76 ± 3 %; with PC12-HS cells (compound 800 ng/ml) it was 92 ± 4 %. The “inhibition by K252a of the actions of NK-4 on PC12-HS cell growth promotion and neurite outgrowth” value with PI3K-Akt cascade (K252a, protein kinase inhibitor specific to TrkA) is listed as “did not inhibit”. Further, the “inhibition by LY294002 of the action of NK-4” value with PI3K-Akt cascade (LY294002, PI3K inhibitor) is on record as “is inhibited by LY294002”.
`CCCCN1C=C/C(=C/C=C(/C=C/c2cc[n+](CCCC)c3ccccc23)c2cc[n+](CCCC)c3ccccc23)c2ccccc21` [NK-26]: in the data set with brain ischemia rat, the “increment of the volume of cerebral infarction region (in words)” value is “significantly suppressed”. Besides, the results for the “Volume of cerebral infarction region (mm^3)” value in the data set on brain ischemia rat (dose 1 μg per kg body weight), in the data set on brain ischemia rat (dose 10 μg per kg body weight) and in the data set on brain ischemia rat (dose 100 μg per kg body weight) were 194 ± 22 mm^3, 121 ± 22* mm^3 and 169 ± 23 mm^3, respectively. For the same compound, the “passive avoidance test (in words)” value in data set [1] (setting [3]) and in data set [1] (setting [4]) was “significant improvement” in each case. The “Passive avoidance reaction” value in data set [1] (dose 5 μg/kg body weight) stood at 84 ± 25 s; in data set [1] (dose 50 μg/kg body weight) it was 160 ± 14 s; in data set [1] (dose 500 μg/kg body weight), 144 ± 13 s. The “suppressing hydrogen peroxide disorder” value in data set [2] is on record as “actions of suppressing”. In the data set with microglia, the “suppressing NO production from microglia” value is on record as “actions of suppressing NO production”.
In the case of `CCN1/C(=C/C=C(/C=C/c2sc3ccccc3[n+]2CC)c2sc3ccccc3[n+]2CC)Sc2ccccc21.[I-].[I-]` [NK-100], the “Size of cerebral infarcttion region (%)” value with brain ischemia rat came out at 74.5 ± 11.4%.
As to `CCCN1C=CC(=CC=C(C=Cc2cc[n+](CCC)c3ccccc23)c2cc[n+](CCC)c3ccccc23)c2ccccc21.[I-].[I-]` [NK-234], in data set [1] (setting [4]), the “passive avoidance test (in words)” value was “significant improvement”. Further, in data set [1] (dose 500 μg/kg body weight), the “Passive avoidance reaction” value was determined as 166 ± 8 s. Further, the “suppressing hydrogen peroxide disorder” value in data set [2] is on record as “actions of suppressing”. For the same compound, the “suppressing NO production from microglia” value in the data set on microglia is recorded as “actions of suppressing NO production”.
Turning to `CC[n+]1ccccc1/C=C/c1ccc(N(C)C)cc1` [NK-557], the “Size of cerebral infarcttion region (%)” value in the data set with brain ischemia rat is 61.1 ± 14.2%.
